The results in this text go back to PubChem BioAssay AID248 (DTP/NCI, 2004).

The test system of this assay is L1210 leukemia ip in BDF1 mice, survival T/C. Kind of assay: NCI In Vivo Anticancer Drug Screen. Data for tumor model L1210 Leukemia (intraperitoneal) in B6D2F1 (BDF1) mice. Particulars: endpoint: mean survival time, higher = longer survival. Summed up: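 Transplanted-tumor mice were given test agent; controls received vehicle only. Survival readings from the two groups were divided (treated over control).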

Setting [1] is: dose: 100.0 mg/kg/injection, schedule: Q01DX001 (ip), vehicle: saline.
[2] abbreviates: dose: 200.0 mg/kg/injection, schedule: Q01DX001 (ip), vehicle: saline.
[3] abbreviates: dose: 400.0 mg/kg/injection, schedule: Q01DX001 (ip), vehicle: saline.
[4] abbreviates: dose: 100.0 mg/kg/injection, schedule: Q01DX009 (ip), vehicle: Klucel (hydroxypropylcellulose) (HPC).
[5] abbreviates: dose: 100.0 mg/kg/injection, schedule: Q04DX003 (ip), vehicle: saline with Tween-80.
[6] abbreviates: dose: 100.0 mg/kg/injection, schedule: Q04DX003 (ip), vehicle: saline.
Where [7] appears, read: dose: 200.0 mg/kg/injection, schedule: Q04DX003 (ip), vehicle: saline.
The mark [8] stands for this setting: dose: 100.0 mg/kg/injection, schedule: Q01DX001 (ip), vehicle: carboxymethylcellulose (CMC).
[9] abbreviates: dose: 200.0 mg/kg/injection, schedule: Q01DX001 (ip), vehicle: carboxymethylcellulose (CMC).

Inconclusive results and toxic doses are left out.

Take `N#Cc1ccc(S(=O)(=O)N=C(N)N)cc1`: the T/C is, setting by setting: under setting [1], 100 % of control; under setting [2], 91 % of control; under setting [3], 90 % of control.

Take `CC(=O)Nc1cccc2c1CCCC2`: the T/C is 98 % of control (dose: 100.0 mg/kg/injection, schedule: Q01DX009 (ip), vehicle: gum acacia); 95 % of control (dose: 100.0 mg/kg/injection, schedule: Q04DX003 (ip), vehicle: gum acacia); 97 % of control (dose: 200.0 mg/kg/injection, schedule: Q01DX009 (ip), vehicle: gum acacia); 96 % of control (dose: 200.0 mg/kg/injection, schedule: Q04DX003 (ip), vehicle: gum acacia); 103 % of control (dose: 400.0 mg/kg/injection, schedule: Q01DX009 (ip), vehicle: gum acacia); 95 % of control (dose: 400.0 mg/kg/injection, schedule: Q04DX003 (ip), vehicle: gum acacia).

With `O=C(N/N=C/c1cccc2ccccc12)c1cccnc1`, the T/C under setting [4] was 101 % of control.

As for `CCOC(=O)c1ccc(OC(=O)Nc2ccc(OC)cc2OC)cc1`, under setting [4], the T/C is 101 % of control.

On to `NNC(=O)c1cc2c3ccccc3ncc2c2ccccc12`, for which the T/C reads like this: under setting [5], 86 % of control; (dose: 200.0 mg/kg/injection, schedule: Q04DX003 (ip), vehicle: saline with Tween-80) 94 % of control; (dose: 400.0 mg/kg/injection, schedule: Q04DX003 (ip), vehicle: saline with Tween-80) 108 % of control.

For the molecule `NC(=S)N/N=C(\c1ccc(Cl)cc1)C1CC1`, the T/C is 96 % of control (dose: 3.0 mg/kg/injection, schedule: Q01DX Z (ip), vehicle: carboxymethylcellulose (CMC)); 96 % of control (dose: 7.0 mg/kg/injection, schedule: Q01DX Z (ip), vehicle: carboxymethylcellulose (CMC)); 121 % of control (dose: 7.0 mg/kg/injection, schedule: Q01DX Z (sc), vehicle: carboxymethylcellulose (CMC)); 97 % of control (dose: 15.0 mg/kg/injection, schedule: Q01DX Z (ip), vehicle: carboxymethylcellulose (CMC)); 120 % of control (dose: 15.0 mg/kg/injection, schedule: Q01DX Z (sc), vehicle: carboxymethylcellulose (CMC)).

On to `CCCCCCCCC(CCCC1CCCC1)CCCC1CCCC1`, for which the T/C (dose: 100.0 mg/kg/injection, schedule: Q01DX001 (ip), vehicle: saline with Tween-80) was 98 % of control; the T/C (dose: 200.0 mg/kg/injection, schedule: Q01DX001 (ip), vehicle: saline with Tween-80) is 94 % of control; the T/C (dose: 400.0 mg/kg/injection, schedule: Q01DX001 (ip), vehicle: saline with Tween-80) is 96 % of control.

As to `CN(C)/C=C/c1nnc([N+](=O)[O-])s1`, the T/C runs as follows: (dose: 62.0 mg/kg/injection, schedule: Q04DX003 (ip), vehicle: Klucel (hydroxypropylcellulose) (HPC)) 100 % of control; (dose: 123.0 mg/kg/injection, schedule: Q04DX003 (ip), vehicle: Klucel (hydroxypropylcellulose) (HPC)) 98 % of control; (dose: 256.0 mg/kg/injection, schedule: Q04DX003 (ip), vehicle: Klucel (hydroxypropylcellulose) (HPC)) 98 % of control; (dose: 512.0 mg/kg/injection, schedule: Q04DX003 (ip), vehicle: Klucel (hydroxypropylcellulose) (HPC)) 100 % of control.

In the case of `CCOC(=O)/C(C#N)=C/c1ccc2n1Cc1cc(OC)c(OC)cc1N(C(C)=O)C2`, the T/C (dose: 25.0 mg/kg/injection, schedule: Q04DX002 (ip), vehicle: Klucel (hydroxypropylcellulose) (HPC)) was 95 % of control; the T/C (dose: 50.0 mg/kg/injection, schedule: Q04DX002 (ip), vehicle: Klucel (hydroxypropylcellulose) (HPC)) was 93 % of control; the T/C (dose: 100.0 mg/kg/injection, schedule: Q04DX002 (ip), vehicle: Klucel (hydroxypropylcellulose) (HPC)) was 87 % of control.

For the molecule `CCOC(=O)CNCc1cccnc1`, the T/C (dose: 100.0 mg/kg/injection, schedule: Q01DX009 (ip), vehicle: saline) was 97 % of control; the T/C under setting [6] was 95 % of control; the T/C (dose: 200.0 mg/kg/injection, schedule: Q01DX009 (ip), vehicle: saline) was 94 % of control; the T/C under setting [7] is 87 % of control; the T/C (dose: 400.0 mg/kg/injection, schedule: Q01DX009 (ip), vehicle: saline) was 95 % of control; the T/C (dose: 400.0 mg/kg/injection, schedule: Q04DX003 (ip), vehicle: saline) was 102 % of control.

Regarding `NNc1ncnc2c1ncn2C1OC(CO)C(O)C1O` (centres undefined), the T/C runs as follows: (dose: 1.0 mg/kg/injection, schedule: Q01DX015 (ip), vehicle: carboxymethylcellulose (CMC)) 106 % of control; (dose: 3.0 mg/kg/injection, schedule: Q01DX015 (ip), vehicle: carboxymethylcellulose (CMC)) 109 % of control; (dose: 6.0 mg/kg/injection, schedule: Q01DX015 (ip), vehicle: carboxymethylcellulose (CMC)) 106 % of control; (dose: 12.0 mg/kg/injection, schedule: Q01DX015 (ip), vehicle: carboxymethylcellulose (CMC)) 97 % of control; (dose: 20.0 mg/kg/injection, schedule: Q01DX015 (ip), vehicle: carboxymethylcellulose (CMC)) 106 % of control; (dose: 25.0 mg/kg/injection, schedule: Q01DX015 (ip), vehicle: carboxymethylcellulose (CMC)) 118 % of control. The T/C (dose: 30.0 mg/kg/injection, schedule: Q01DX015 (ip), vehicle: carboxymethylcellulose (CMC)) was 108 % of control; the T/C (dose: 44.0 mg/kg/injection, schedule: Q01DX015 (ip), vehicle: carboxymethylcellulose (CMC)) was 122 % of control; the T/C (dose: 50.0 mg/kg/injection, schedule: Q01DX001 (ip), vehicle: carboxymethylcellulose (CMC)) is 108 % of control; the T/C (dose: 50.0 mg/kg/injection, schedule: Q01DX Z (ip), vehicle: other) is 122 % of control; the T/C (dose: 75.0 mg/kg/injection, schedule: Q01DX Z (ip), vehicle: other) was 121 % of control; the T/C under setting [8] is 116 % of control. Further, the T/C is, setting by setting: (dose: 100.0 mg/kg/injection, schedule: Q01DX015 (ip), vehicle: carboxymethylcellulose (CMC)) 124 % of control; (dose: 100.0 mg/kg/injection, schedule: Q01DX Z (ip), vehicle: other) 152 % of control; (dose: 150.0 mg/kg/injection, schedule: Q01DX015 (ip), vehicle: carboxymethylcellulose (CMC)) 86 % of control; (dose: 150.0 mg/kg/injection, schedule: Q01DX Z (ip), vehicle: other) 95 % of control; (dose: 186.75 mg/kg/injection, schedule: Q01DX015 (ip), vehicle: gum acacia) 83 % of control; under setting [9], 111 % of control. Moreover, the T/C (dose: 220.0 mg/kg/injection, schedule: Q01DX015 (ip), vehicle: carboxymethylcellulose (CMC)) is 95 % of control.

Turning to `CCCNc1ncnc2c1cnn2C`, the T/C (dose: 50.0 mg/kg/injection, schedule: Q01DX009 (ip), vehicle: saline) is 124 % of control; the T/C (dose: 50.0 mg/kg/injection, schedule: Q04DX003 (ip), vehicle: saline) was 100 % of control; the T/C under setting [1] was 107 % of control; the T/C under setting [6] is 102 % of control; the T/C under setting [2] was 104 % of control; the T/C under setting [7] is 103 % of control.

`Cc1cc2nc(N)[nH]c2cc1C`: the T/C runs as follows: (dose: 12.5 mg/kg/injection, schedule: Q04DX002 (ip), vehicle: saline + alcohol) 96 % of control; (dose: 25.0 mg/kg/injection, schedule: Q04DX002 (ip), vehicle: saline + alcohol) 96 % of control; (dose: 50.0 mg/kg/injection, schedule: Q04DX002 (ip), vehicle: saline + alcohol) 100 % of control.

In the case of `CC(=O)Nc1ccc(/C=N/NC(=O)c2cccc3ccccc23)cc1`, the T/C under setting [1] is 86 % of control.

On to `CC(=O)N/N=C(/C)C1CC2CCC1C2` (centres undefined), for which the T/C is 104 % of control under setting [1], 106 % of control under setting [2] and 112 % of control under setting [3].

With `COc1ccc2c(c1)C/C(=N\O)C2=O`, the T/C under setting [5] was 102 % of control.

For `N#Cc1cc(Cl)cc(Cl)c1`, the T/C is, setting by setting: under setting [8], 98 % of control; under setting [9], 104 % of control; (dose: 400.0 mg/kg/injection, schedule: Q01DX001 (ip), vehicle: carboxymethylcellulose (CMC)) 93 % of control.

Take `CCC(C)c1cc([N+](=O)[O-])cc([N+](=O)[O-])c1O` (centres undefined): the T/C (dose: 12.5 mg/kg/injection, schedule: Q04DX003 (ip), vehicle: Klucel (hydroxypropylcellulose) (HPC)) is 95 % of control; the T/C (dose: 25.0 mg/kg/injection, schedule: Q04DX003 (ip), vehicle: Klucel (hydroxypropylcellulose) (HPC)) is 98 % of control; the T/C (dose: 50.0 mg/kg/injection, schedule: Q04DX003 (ip), vehicle: Klucel (hydroxypropylcellulose) (HPC)) was 96 % of control.
